Results reported in patent publication EP4385495A1, “NANOSYSTEMS FOR THE ENCAPSULATION OF THERAPEUTIC AGENTS” (National Technical University of Athens, priority 2022, dated 2024).

How the values were obtained:
[1] = tested on: experimental animal model of osteoarthritis (OA); experiment: Slope walking test in osteoarthritis rat model; format: in vivo, Wistar rats
Description: (§1) Rats were anesthetized with chloral hydrate. The right knee joints of Group I were injected with normal saline solution and served as a control. Animals from the groups II, III, IV, V, VI, VII were injected with collagenase type II (Clostridium histolyticum). Collagenase (125 collagen digestion unit/mg) was dissolved in saline, and it was injected intra-articularly into the right knee joint twice on days 1 and 4 of the experiment (Al-Saffar, F., H. Ganabadi and S. Fakurazi. Collagenase and sodium iodoacetate-induced experimental osteoarthritis model in Sprague dawley rats. Asian J. Sci. Res. 2: 1-13, 2009). The left knees of all animals were left untreated as a control.
Walking on an inclined plane was used for the clinical assessment of motor function in rats after induction of OA. The method consists of placing the animal on an inclined plane and then measuring the time (seconds) needed for the animals to go up the walking tray.

[2] = tested on: experimental animal model of osteoarthritis (OA); experiment: Knee diameter (digital caliper) and gross observations in collagenase-induced osteoarthritis rat model; format: in vivo, Wistar rats; conditions: for Right knee diameter: collagenase-injected knee; for Left knee diameter: untreated control knee
Description: (§2) In order to understand the anti-inflammatory and antioxidant potential of the nanoparticles of the invention in vivo an experimental animal model of osteoarthritis (OA) was established. The OA lesions were caused by matrix degradation of articular cartilage using enzymatic means, such as collagenase type-II. Following the induction of osteoarthritis, the studied nanoparticles were administered for 8 weeks in which period the morphological and behavioral changes were measured and finally histological analysis of the articular cartilage samples concluded the in vivo study.
as §1
(§3) Changes in body weight and knee diameter were measured on the 1st, 4th,11th,21st,31st,41st,51st, 61st, 71st day before every injection. Knee diameter was measured using a digital caliper. […] A change in body weight is also measured as one of the parameters to assess the course of the disease in the OA animal models.

[3] = Body weight in collagenase-induced osteoarthritis rat model; format: in vivo, Wistar rats
Description: as §2, §1, §3

[4] = tested on: experimental animal model of osteoarthritis (OA); experiment: Grid-walking test in osteoarthritis rat model; format: in vivo, Wistar rats
Description: as §1
In this test the rats were allowed to explore freely for 4 minutes in a wire grid and when one of the limbs fell below the grid surface during free walking, the observer counted the number of foot-fault errors (footslips) (Starkey, M. L., Barritt, A. W., Yip, P. K., Davies, M., Hamers, F. P. T., McMahon, S. B., & Bradbury, E. J. (2005). Assessing behavioural function following a pyramidotomy lesion of the corticospinal tract in adult mice. Experimental Neurology, 195(2), 524-539. doi:10.1016/j.expneurol.2005.0).

CCK-8 viability assay = format: cell-based; conditions: human, primary human chondrocytes; 1 µM, 72h; positive control set to 100; read-out: Mean % relative viability
Description: b) The viability of human primary chondrocytes was evaluated following incubation with increasing concentrations of either the pure Naringin (S1) or the nanosystems (Samples S2 and S3) at 2-10-50µM of encapsulated Naringin (1:5 serial dilutions) for 72h (higher concentrations were not used because the nanosystems become insoluble and aggregates sediment on the cell monolayer). For S2 this corresponded to 6,4 µg/ml (for 2 µM of Naringin), 32 µg/ml (for 10 µM of Naringin) and 158 µg/ml (for 50 µM of Naringin) respectively, of total NP concentration. For S3 (CS[PLA[NAR]]) the total NP concentrations to provide the same µM of encapsulated Naringin were 14,4 / 72 / 360 µg/m). As control for the nanosystems, a blank PLA nanoparticle preparation coated with chitosan (S4) was used, at the same µg/ml polymer concentration like the ones used to achieve the 2-10-50µM range for Naringin (the difference being that the blank contains no Naringin). Finally, the blank S4 was used at the 14,4/72/360 µg/ml concentration range (1:5 serial dilutions). Following incubation, the CCK-8 viability kit was used according to manufacturer's instructions (Sigma, 96992-500TESTS-F). Macroscopical and microscopical observation confirmed the proper complete solubility and dispersion of the Nanoparticles. Importantly, healthy cell morphology was observed (spindle-like attached cells with several processes) with concomitant absence of undissolved material.
Table 5. Effect of the natural products and the nanosystems on the relative cell viability of primary human chondrocytes. Measurements obtained using the CCK-8 viability kit. Values normalized to positive control (PC; set to 100; arbitrary unit). Samples' coding: S1= pure Naringin, S2=Naringin encapsulated in PLA nanoparticles [PLA[NAR]], S3=Naringin encapsulated in PLA nanoparticles coated with chitosan CS[PLA[NAR]], and S4=Blank PLA nanoparticles coated with chitosan, CS(PLA[---]].

[5] = tested on: experimental animal model of osteoarthritis (OA); experiment: von Frey mechanical allodynia test in osteoarthritis rat model; format: in vivo, Wistar rats; conditions: for Paw Withdrawal Threshold (%): right paw/(right paw + left paw)*100
Description: Healthy adult male Wistar rats (150-200 g) were used for the study, with water and food ad libitum, at a constant temperature of 22°C and controlled lighting (12 h light/12 h dark cycle). […] As far as the dispersion procedure of the injectables is concerned, all the natural compounds were dissolved in saline solution, whereas the studied nanoparticles were mechanically grinded in a mortar and pestle set with saline solution and Tween 20 (2% w/v) and heated at 36 °C before each treatment. There were six treatments administered every 10 days. At the end of the experiment rats were euthanized and both knees were collected for histological analysis. Rats were anesthetized with chloral hydrate. The right knee joints of Group I were injected with normal saline solution and served as a control. Animals from the groups II, III, IV, V, VI, VII were injected with collagenase type II (Clostridium histolyticum). Collagenase (125 collagen digestion unit/mg) was dissolved in saline, and it was injected intra-articularly into the right knee joint twice on days 1 and 4 of the experiment ([…] and S. Fakurazi. Collagenase and sodium iodoacetate-induced experimental osteoarthritis model in Sprague dawley rats. Asian J. Sci. Res. 2: 1-13, 2009). The left knees of all animals were left untreated as a control. For the evaluation of the effectiveness and time of release of the encapsulated compounds, all animals were subjected to a series of behavioral testing in addition to the measurements of body weight and knees diameter change. The experimental protocol of the present study followed the combination of three different behavioral tests, which are von Frey mechanical allodynia test, grid walking and slope walking test. Behavioral tests are performed in three phases, at the beginning before the start of treatment, in the middle of treatment (approximately 35-40 days) and at the end (after the 70th day). Mechanical allodynia was tested by the von Frey method which detects pain threshold as the paw withdrawal response. For the testing, rats were placed into plastic chambers that allow access to the plantar surface of the hind paws. […] In Table 15 below, the nociceptive threshold is defined as: nociceptive threshold (%) = ([…])/((nociceptive; threshold on right paw + nociceptive threshold of left paw))*100 [formula] Table 13: von Frey-paw withdrawal threshold (g)

RAW264.7 cells = experiment: MTT cell viability assay; format: cell-based, mouse; conditions: 24h
Text: The MTT (3-[4,5-dimethylthiazol-2-yl]-2,5 diphenyl tetrazolium bromide) assay is based on the ability of viable cells with active metabolism to convert the yellow MTT to a purple formazan product, which determines mitochondrial activity. The MTT formazan product agglomerates as an insoluble residuum within the cells, which can be solubilized (in this protocol with DMSO) for homogeneous measurement. Thus, any increase or decrease in the number of viable cells can be detected by measuring the formazan concentration reflected in the optical density (OD) measurement at 540 nm with a reference absorption of 720 nm. This assay is broadly used to measure the in vitro cytotoxic effects of drugs on cell lines or primary cells. For the experimental procedure a standard solution of MTT 1mg/mL in PBS was prepared which after filtration ([…] filter (Millipore, Carrigtwohill, Ireland)) was stored in the dark (4-8 °C) until use. In brief, RAW 264.7 cells were seeded in a 96-well plate at a density of 30.000 cells/ in 100 µL of medium per well. […] This was followed by incubation for 24 h, 48 h and 72 h. At the end of the incubation 10 µL of MTT was added to each well followed by incubation for 4 hours, for the formation of the formazan crystals. The formazan crystals were then dissolved by adding DMSO and stirring lightly for 30 min, after which the absorbance was measured in a plate reader at 540 nm with a reference absorbance of 720 nm. […] Table 4: % cell viability after treatment of RAW264.7 cells with the samples

[6] = 70 days (end of experimental protocol)
[7] = 1st injection CO/saline (before treatment)
[8] = 2nd injection CO/saline (before treatment)

## CC(C)Cc1ccc(C(C)C(=O)O)cc1 (centres unmarked) [IBUPROFEN, ibuprofen]
[1]; 11 days (before treatment)
  Slope Walking: 9,8 sec
[1]; [6]
  Slope Walking: 8,9 sec
[2]; 11 days (before treatment)
  % Changes in Left knee diameter: 0,02%
  % Changes in Right knee diameter: 0,91%
[2]; [6]
  % Changes in Left knee diameter: 0,44%
  % Changes in Right knee diameter: 0,37%
[2]; [7]
  Right knee diameter: 0,8128 cm
[2]; 1st treatment, 10 mg/kg (S1, ibuprofen i.p.; nanoparticles i.a.)
  Right knee diameter: 0,8202 cm
[2]; [8]
  Right knee diameter: 0,8192 cm
[2]; 3rd treatment
  Right knee diameter: 0,8172 cm
[2]; 4th treatment
  Right knee diameter: 0,8174 cm
  Left knee diameter: 0,8184 cm
[2]; 5th treatment
  Right knee diameter: 0,817 cm
[2]; 6th treatment
  Right knee diameter: 0,816 cm
[2]; final
  Right knee diameter: 0,8158 cm
  Left knee diameter: 0,8194 cm
[2]; 1st injection CO/saline
  Left knee diameter: 0,8158 cm
[2]; 1st treatment
  Left knee diameter: 0,816 cm
[2]; 2nd injection CO/saline
  Left knee diameter: 0,816 cm
[3]; [7]
  Body Weight (BW): 234 g
[3]; 1st treatment, 10 mg/kg (S1, ibuprofen i.p.; nanoparticles i.a.), every 10 days
  Body Weight (BW): 245 g
[3]; [8]
  Body Weight (BW): 230 g
[3]; 2nd treatment, 10 mg/kg (S1, ibuprofen i.p.; nanoparticles i.a.)
  Body Weight (BW): 276 g
[3]; 3rd treatment, 10 mg/kg (S1, ibuprofen i.p.; nanoparticles i.a.)
  Body Weight (BW): 296 g
[3]; 4th treatment, 10 mg/kg (S1, ibuprofen i.p.; nanoparticles i.a.)
  Body Weight (BW): 303 g
[3]; 5th treatment, 10 mg/kg (S1, ibuprofen i.p.; nanoparticles i.a.)
  Body Weight (BW): 308 g
[3]; 6th treatment, 10 mg/kg (S1, ibuprofen i.p.; nanoparticles i.a.)
  Body Weight (BW): 313 g
[3]; 11 days (before treatment)
  % Changes in Body Weight (BW): 4,7%
[3]; [6]
  % Changes in Body Weight (BW): 40,2%
[3]; final, 10 mg/kg (S1, ibuprofen i.p.; nanoparticles i.a.)
  Body Weight (BW): 328 g
[4]; 11 days left paw
  Foot fault in grid-walk test (4 min): 1,4
[4]; 11 days right paw
  Foot fault in grid-walk test (4 min): 2,8
[4]; 40 days left paw
  Foot fault in grid-walk test (4 min): 1,8
[4]; 40 days right paw
  Foot fault in grid-walk test (4 min): 1,2
[4]; 70 days left paw
  Foot fault in grid-walk test (4 min): 1
[4]; 70 days right paw
  Foot fault in grid-walk test (4 min): 1
CCK-8 viability assay
  viability at 72 h, 1 µM: 100%
[5]; 11 days (before treatment)
  von Frey-paw withdrawal threshold: 59,78 g
  Paw Withdrawal Threshold (%): 38,90%
[5]; 70 days (end of experimental protocol), 10 mg/kg (S1, ibuprofen i.p.; nanoparticles i.a.)
  von Frey-paw withdrawal threshold: 83,8 g
[5]; left-control paw
  von Frey-paw withdrawal threshold: 93,9 g
[5]; [6]
  Paw Withdrawal Threshold (%): 45,44%

## COc1cc(C2Oc3cc([C@H]4Oc5cc(O)cc(O)c5C(=O)[C@@H]4O)ccc3OC2CO)ccc1O (some centres unmarked) [PC (Silibinin), silibinin]
RAW264.7 cells; 25 µM
  % cell viability: 30%
RAW264.7 cells; 50 µM
  % cell viability: 20%
